Reference: ChEMBL document CHEMBL5620384, “6-Regioisomeric 5,8-quinolinediones as potent CDC25 inhibitors against colorectal cancers” (Eur J Med Chem, 2023)
The source made the active and inactive calls. The rule behind the calls is not given here.

Tests used:
HCT-116 [1] = experiment: Cytotoxicity against human HCT-116 cells assessed as cell survival measured at 2 uM after 72 hrs by MTS assay relative to control; type: functional; details: read-out: Activity
DLD-1 [2] = experiment: Cytotoxicity against human DLD-1 cells assessed as cell survival measured at 2 uM after 72 hrs by MTS assay relative to control; type: functional; details: read-out: Activity
SW480 = experiment: Cytotoxicity against human SW480 cells assessed as cell survival measured at 2 uM after 72 hrs by MTS assay relative to control; type: functional; details: read-out: Activity
U-87 MG = experiment: Cytotoxicity against human U-87 MG cells assessed as cell survival measured at 2 uM after 72 hrs by MTS assay relative to control; type: functional, U-87MG ATCC; details: read-out: Activity
MDA-MB-231 [3] = experiment: Cytotoxicity against human MDA-MB-231 cells assessed as cell survival measured at 2 uM after 72 hrs by MTS assay relative to control; type: functional; details: read-out: Activity
MCF7 = experiment: Cytotoxicity against human MCF7 cells assessed as cell survival measured at 2 uM after 72 hrs by MTS assay relative to control; type: functional; details: read-out: Activity
DLD-1 [4] = experiment: Cytotoxicity against human DLD1 cells assessed as growth inhibition after 72 hrs by MTS assay; type: functional, cell-based; details: DLD-1, 72 h
MDA-MB-231 [5] = experiment: Cytotoxicity against human MDA-MB-231 cells assessed as growth inhibition after 72 hrs by MTS assay; type: functional, cell-based; details: MDA-MB-231, 72 h
[6] = Cytotoxicity against human CCD-841CoN cells assessed as growth inhibition after 72 hrs by MTS assay; type: toxicity, cell-based
[7] = Cytotoxicity against human M10 cells assessed as growth inhibition after 72 hrs by MTS assay; type: toxicity, cell-based
[8] = Cytotoxicity against human MRC5 cells assessed as growth inhibition after 72 hrs by MTS assay; type: toxicity, cell-based
[9] = Cytotoxicity against human HEL 299 cells assessed as growth inhibition after 72 hrs by MTS assay; type: toxicity, cell-based
HCT-116 [10] = experiment: Induction of cell cycle arrest in human HCT-116 cells assessed as cells accumulation at S to G2 phase (T6-T8) at 2 uM measured upto 24 hrs by flow cytometry; type: functional, cell-based
HCT-116 [11] = experiment: Induction of cell cycle arrest in human HCT-116 cells assessed as cells accumulation at G2/M phase (T10-T24) at 2 uM measured upto 24 hrs by flow cytometry; type: functional, cell-based
DLD-1 [12] = experiment: Induction of cell cycle arrest in human DLD-1 cells assessed as reduced progression of S phase (T8) at 2 uM measured upto 24 hrs by flow cytometry; type: functional, cell-based
HCT-116 [13] = experiment: Effect on cell cycle progression in thymidine synchronized human HCT-116 cells assessed as suppression of CDK1 dephosphorylation in presence of colchicine at 2 uM by Western blot analysis; type: functional, cell-based
HCT-116 [14] = experiment: Effect on cell cycle progression in thymidine synchronized human HCT-116 cells assessed as prevention of cells entering from mitosis in presence of colchicine at 2 uM by Western blot analysis; type: functional, cell-based
HCT-116 [15] = experiment: Suppression of histone H4 methylation at K20 (H4K20me1) in thymidine synchronized human HCT-116 cells at 2 uM measured upto 8 hrs by Western blot analysis; type: functional, cell-based
HCT-116 [16] = experiment: Induction of DNA damaging in human HCT-116 cells assessed as CDK1Y15 dephosphorylation at 2 uM measured upto 8 hrs by Western blot analysis; type: functional, cell-based
HCT-116 [17] = experiment: Induction of DNA damaging in human HCT-116 cells assessed as H4K20 methylation at 2 uM measured upto 8 hrs by Western blot analysis; type: functional, cell-based
HCT-116 [18] = experiment: Induction of DNA damaging in human HCT-116 cells assessed as CHK1 phosphorylation at S345 at 2 uM measured upto 8 hrs by Western blot analysis; type: functional, cell-based
HCT-116 [19] = experiment: Induction of DNA damaging in human HCT-116 cells assessed as RPA2 phosphorylation at S33 at 2 uM measured upto 8 hrs by Western blot analysis; type: functional, cell-based
HCT-116 [20] = experiment: Induction of DNA damaging in human HCT-116 cells assessed as KAP-1 phosphorylation at S824 at 2 uM measured upto 8 hrs by Western blot analysis; type: functional, cell-based
HCT-116 [21] = experiment: Induction of DNA damaging in human HCT-116 cells assessed as CHK2 phosphorylation at T68 at 2 uM measured upto 8 hrs by Western blot analysis; type: functional, cell-based
HCT-116 [22] = experiment: Induction of DNA damaging in human HCT-116 cells assessed as RPA2 phosphorylation at S4/S8 at 2 uM measured upto 8 hrs by Western blot analysis; type: functional, cell-based
HCT-116 [23] = experiment: Induction of apoptosis in human HCT-116 cells assessed as reduction in number of cells at G1 phase at 1 uM measured after 72 hrs by flow cytometry; type: functional, cell-based
HCT-116 [24] = experiment: Induction of apoptosis in human HCT-116 cells assessed as reduction in number of cells at S phase at 1 uM measured after 72 hrs by flow cytometry; type: functional, cell-based
HCT-116 [25] = experiment: Induction of apoptosis in human HCT-116 cells assessed as reduction in number of cells at G2/M phase at 1 uM measured after 72 hrs by flow cytometry; type: functional, cell-based
HCT-116 [26] = experiment: Induction of apoptosis in human HCT-116 cells assessed as increase in number of cells at sub-G1 phase measured after 72 hrs by flow cytometry; type: functional, cell-based; details: dose 1-4 µM
HCT-116 [27] = experiment: Induction of apoptosis in human HCT-116 cells assessed as increase in caspase 3 at 1 uM measured after 72 hrs by flow cytometry; type: functional, cell-based
HCT-116 [28] = experiment: Induction of apoptosis in human HCT-116 cells assessed as increase in caspase 8 at 1 uM measured after 72 hrs by flow cytometry; type: functional, cell-based
HCT-116 [29] = experiment: Induction of apoptosis in human HCT-116 cells assessed as increase in caspase 9 at 1 uM measured after 72 hrs by flow cytometry; type: functional, cell-based
HCT-116 [30] = experiment: Induction of apoptosis in human HCT-116 cells assessed as decrease in MCL1 expression at 1 uM measured after 72 hrs by flow cytometry; type: functional, cell-based

Compound: O=C1C(Cl)=C(NCCCN2CCOCC2)C(=O)c2ncccc21
- viability at 2 µM (HCT-116 [1]): 56.3%
- viability at 2 µM (DLD-1 [2]): 67.7%
- viability at 2 µM (SW480): 105%
- viability at 2 µM (U-87 MG): 76.8%
- viability at 2 µM (MDA-MB-231 [3]): 87.8%
- viability at 2 µM (MCF7): 95.1%

Compound: O=C1C(Cl)=C(NCCN2CCOCC2)C(=O)c2cc([N+](=O)[O-])ccc21
- viability at 2 µM (HCT-116 [1]): 66%
- viability at 2 µM (DLD-1 [2]): 54.9%
- viability at 2 µM (SW480): 76.8%
- viability at 2 µM (U-87 MG): 89.1%
- viability at 2 µM (MDA-MB-231 [3]): 66.8%
- viability at 2 µM (MCF7): 90.5%

Compound: O=C1C(NCCCN2CCOCC2)=C(Cl)C(=O)c2ncccc21
- viability at 2 µM (HCT-116 [1]): 2.43%
- viability at 2 µM (DLD-1 [2]): 34.1%
- viability at 2 µM (SW480): 51.6%
- viability at 2 µM (U-87 MG): 51.6%
- viability at 2 µM (MDA-MB-231 [3]): 90.4%
- viability at 2 µM (MCF7): 70.8%
- IC50 (DLD-1 [4]): 1940 nM
- IC50 (MDA-MB-231 [5]): 1140 nM

Compound: O=C1C(Cl)=C(NCCCCN2CCOCC2)C(=O)c2ncccc21
- viability at 2 µM (HCT-116 [1]): 53.9%
- viability at 2 µM (DLD-1 [2]): 77.3%
- viability at 2 µM (U-87 MG): 81.5%
- viability at 2 µM (MDA-MB-231 [3]): 88.6%

Compound: Nc1ccc2c(c1)C(=O)C(Cl)=C(NCCN1CCOCC1)C2=O
- viability at 2 µM (HCT-116 [1]): 88.7%
- viability at 2 µM (DLD-1 [2]): 90.8%
- viability at 2 µM (U-87 MG): 104%
- viability at 2 µM (MDA-MB-231 [3]): 99.7%
- viability at 2 µM (MCF7): 81.4%

Compound: O=C1C(Cl)=C(NCCN2CCOCC2)C(=O)c2cc(Cl)ccc21
- viability at 2 µM (HCT-116 [1]): 86.5%
- viability at 2 µM (DLD-1 [2]): 39.3%
- viability at 2 µM (SW480): 105%
- viability at 2 µM (U-87 MG): 98.2%
- viability at 2 µM (MDA-MB-231 [3]): 91.3%
- viability at 2 µM (MCF7): 94%

Compound: O=C1C(Cl)=C(NCCN2CCOCC2)C(=O)c2ccc(Cl)cc21
- viability at 2 µM (HCT-116 [1]): 93%
- viability at 2 µM (DLD-1 [2]): 91.5%
- viability at 2 µM (SW480): 106%
- viability at 2 µM (U-87 MG): 103%
- viability at 2 µM (MDA-MB-231 [3]): 95.9%
- viability at 2 µM (MCF7): 101%

Compound: O=C1C(Cl)=C(NCCN2CCOCC2)C(=O)c2cc(I)ccc21
- viability at 2 µM (HCT-116 [1]): 82.4%
- viability at 2 µM (DLD-1 [2]): 1.7%
- viability at 2 µM (SW480): 84.3%
- viability at 2 µM (U-87 MG): 59.3%
- viability at 2 µM (MDA-MB-231 [3]): 81.1%
- viability at 2 µM (MCF7): 102%

Compound: O=C1C(Cl)=C(NCCN2CCOCC2)C(=O)c2ccc(I)cc21
- viability at 2 µM (HCT-116 [1]): 94.4%
- viability at 2 µM (DLD-1 [2]): 82.1%
- viability at 2 µM (SW480): 111%
- viability at 2 µM (U-87 MG): 104%
- viability at 2 µM (MDA-MB-231 [3]): 91%
- viability at 2 µM (MCF7): 104%

Compound: O=C1C(NCCN2CCOCC2)=C(Cl)C(=O)c2ncccc21
- viability at 2 µM (HCT-116 [1]): 0.85%
- viability at 2 µM (DLD-1 [2]): 1.86%
- viability at 2 µM (SW480): 16.7%
- viability at 2 µM (U-87 MG): 28%
- viability at 2 µM (MDA-MB-231 [3]): 93.2%
- viability at 2 µM (MCF7): 36.3%
- IC50 (DLD-1 [4]): 590 nM
- IC50 (MDA-MB-231 [5]): 440 nM
- IC50 at 72 h [6]: > 2000 nM
- IC50 at 72 h [7]: > 2000 nM
- IC50 at 72 h [8]: > 2000 nM
- IC50 at 72 h [9]: > 2000 nM
- Activity (HCT-116 [10]): Active
- Activity (HCT-116 [11]): Active
- Activity (DLD-1 [12]): Active
- Activity (HCT-116 [13]): Active
- Activity (HCT-116 [14]): Active
- Activity (HCT-116 [15]): Active
- Activity (HCT-116 [16]): Active
- Activity (HCT-116 [17]): Active
- Activity (HCT-116 [18]): Active
- Activity (HCT-116 [19]): Active
- Activity (HCT-116 [20]): Active
- Activity (HCT-116 [21]): Active
- Activity (HCT-116 [22]): Active
- Activity (HCT-116 [23]): Active
- Activity (HCT-116 [24]): Active
- Activity (HCT-116 [25]): Active
- Activity (HCT-116 [26]): Dose-Dependent Effect
- Activity (HCT-116 [27]): Active
- Activity (HCT-116 [28]): Active
- Activity (HCT-116 [29]): Active
- Activity (HCT-116 [30]): Active

Compound: O=C1C(NCCCCCN2CCOCC2)=C(Cl)C(=O)c2ncccc21
- viability at 2 µM (HCT-116 [1]): 13.7%
- viability at 2 µM (DLD-1 [2]): 30.5%
- viability at 2 µM (SW480): 31%
- viability at 2 µM (U-87 MG): 49.8%
- viability at 2 µM (MDA-MB-231 [3]): 83.4%
- viability at 2 µM (MCF7): 73.9%
- IC50 (DLD-1 [4]): 1940 nM
- IC50 (MDA-MB-231 [5]): 1190 nM
